Results from patent US8063214B2, “Polymorphic forms of tadalafil” (Dr. Reddy's Laboratories Limited, priority 2004, dated 2011).

Legend:
Format in all cases: physicochemical
[1] = Particle size distribution by MASTERSIZER 2000 laser light scattering
Text: The particle size distribution plots of the drawings were obtained using a MASTERSIZER™ 2000 laser light scattering instrument sold by Malvern Instruments Ltd. of Malvern, Worcestershire, United Kingdom. In the plots, values in the vertical axis represent a volume percentage of particles and the horizontal axis is a logarithmic scale of particle sizes, in μm units.

[2] = Bulk density and tapped bulk density, Test Method 616 of United States Pharmacopeia 24; details: for tapped bulk density: after tapping
[3] = Storage of polymorphic forms under ambient conditions, form checked by XRPD; details: for polymorphic form after storage (XRPD pattern): ambient conditions; for polymorphic form stability upon storage: storage at ambient temperatures
Text: The various forms of tadalafil are characterized by their XRPD patterns, which differ between polymorpic forms. All XRPD results reported herein were obtained using Cu Kα radiation, having the wavelength 1.541 Å. The XRPD patterns of the figures have a vertical axis that is intensity units, and a horizontal axis that is degrees 2θ.

CN1CC(=O)N2[C@H](c3ccc4c(c3)OCO4)c3[nH]c4ccccc4c3C[C@@H]2C1=O [Example 1, tadalafil]
diameters of 10 volume percent of the particles [1]: less than 31 μm
diameters of 50 volume percent of the particles [1]: less than 104 μm
diameters of 90 volume percent of the particles [1]: less than 321 μm
bulk density [2]: 0.344 g/mL
tapped bulk density [2]: 0.666 g/mL

CN1CC(=O)N2[C@H](c3ccc4c(c3)OCO4)c3[nH]c4ccccc4c3C[C@@H]2C1=O [Example 11, tadalafil]
diameters of 10 volume percent of the particles [1]: less than 9.9 μm
diameters of 50 volume percent of the particles [1]: less than 40 μm
diameters of 90 volume percent of the particles [1]: less than 148 μm
bulk density [2]: 0.181 g/mL
tapped bulk density [2]: 0.434 g/mL

CN1CC(=O)N2[C@H](c3ccc4c(c3)OCO4)c3[nH]c4ccccc4c3C[C@@H]2C1=O [Example 15, tadalafil]
diameters of 10 volume percent of the particles [1]: less than 58 μm
diameters of 50 volume percent of the particles [1]: less than 193 μm
diameters of 90 volume percent of the particles [1]: less than 428 μm
bulk density [2]: 0.435 g/mL
tapped bulk density [2]: 0.626 g/mL

CN1CC(=O)N2[C@H](c3ccc4c(c3)OCO4)c3[nH]c4ccccc4c3C[C@@H]2C1=O [Example 21, tadalafil]
polymorphic form after storage (XRPD pattern) ([3]; sealed polyethylene bag, 3 to 4 days): conversion of the tadalafil Form B into Form A
polymorphic form stability upon storage ([3]; listed as mixtures of Form A and Form B): will convert to only Form A

CN1CC(=O)N2[C@H](c3ccc4c(c3)OCO4)c3[nH]c4ccccc4c3C[C@@H]2C1=O [Tadalafil Form B, tadalafil]
polymorphic form after storage (XRPD pattern) ([3]; sealed in a polyethylene bag, 40 hours): conversion of the tadalafil Form B into Form A
polymorphic form stability upon storage [3]: spontaneously converts to Form A
